From ChEMBL document CHEMBL5550215, “Discovery of Novel Imidazo[1,2-a]pyridine-Based HDAC6 Inhibitors as an Anticarcinogen with a Cardioprotective Effect” (J Med Chem, 2024)
Active and inactive are the calls of the source. The calls are words filed in the database; no cut-off is given here.

What was measured:
[1] = test system: MGC-803; assay: Antiproliferative activity against human MGC-803 cells assessed as inhibition of cell growth by MTT assay
[2] = test system: SMMC-7721; assay: Antiproliferative activity against human SMMC-7721 cells assessed as inhibition of cell growth by MTT assay
[3] = test system: HGC-27; assay: Antiproliferative activity against human HGC-27 cells assessed as inhibition of cell growth by MTT assay
[4] = test system: SGC-7901; assay: Antiproliferative activity against human SGC-7901 cells assessed as inhibition of cell growth by MTT assay
[5] = test system: AGS; assay: Antiproliferative activity against human AGS cells assessed as inhibition of cell growth by MTT assay
[6] = AUC (0 to infinity) in male Sprague-Dawley rat at 7 mg/kg,iv measured upto 8 hrs by UPLC-MS/MS analysis; format: ADME, organism-based; settings: in vivo
[7] = AUClast in male Sprague-Dawley rat at 7 mg/kg,po measured upto 8 hrs by UPLC-MS/MS analysis; format: ADME, organism-based; settings: in vivo
[8] = Observed apparent volume of distribution in male Sprague-Dawley rat at 7 mg/kg,po measured upto 8 hrs by UPLC-MS/MS analysis; format: ADME, organism-based; settings: in vivo
[9] = test system: MGC-803; assay: Antimetastatic activity in human MGC-803 cells; format: functional, cell-based; settings: dose <= 2.0 µM
[10] = test system: MGC-803; assay: Induction of apoptosis in human MGC-803 cells assessed as viable cells at 0.5 uM measured after 48 hrs by Annexin V-EGFP and PI staining based flow cytometry analysis (reference value: 92.3%); format: functional; settings: read-out: Activity
[11] = test system: MGC-803; assay: Induction of apoptosis in human MGC-803 cells assessed as viable cells at 2 uM measured after 48 hrs by Annexin V-EGFP and PI staining based flow cytometry analysis (reference value: 92.3%); format: functional; settings: read-out: Activity
[12] = test system: MGC-803; assay: Induction of apoptosis in human MGC-803 cells assessed as late apoptotic cells at 0.5 uM measured after 48 hrs by Annexin V-EGFP and PI staining based flow cytometry analysis (reference value: 3.16%); format: functional
[13] = test system: MGC-803; assay: Induction of apoptosis in human MGC-803 cells assessed as increase in bax expression by Western blot analysis; format: functional, cell-based; settings: dose <= 2.0 µM
[14] = test system: MGC-803; assay: Induction of apoptosis in human MGC-803 cells assessed as decrease in Bcl-2 expression by Western blot analysis; format: functional, cell-based; settings: dose <= 2.0 µM
[15] = test system: MGC-803; assay: Antitumor activity against human MGC-803 cells xenografted in […] mouse model assessed as suppression of tumor volume at 25 to 50 mg/kg, ip measured upto 21 days with continuous administration for 5 days followed by two days break; format: functional, organism-based; settings: dose 25-50 mg/kg, time <= 21.0 day
[16] = biological target: T1, Protein deacetylase HDAC6 (Mus musculus) (UniProt Q9Z2V5); assay: In vivo inhibition of HDAC6 in C57BL/6 mouse xenografted with MGC-803 cells assessed as effect on acetylated H3 level at 25 to 50 mg/kg, ip by Western blot analysis; format: functional, organism-based; settings: dose 25-50 mg/kg
T1 sequence (whole entry): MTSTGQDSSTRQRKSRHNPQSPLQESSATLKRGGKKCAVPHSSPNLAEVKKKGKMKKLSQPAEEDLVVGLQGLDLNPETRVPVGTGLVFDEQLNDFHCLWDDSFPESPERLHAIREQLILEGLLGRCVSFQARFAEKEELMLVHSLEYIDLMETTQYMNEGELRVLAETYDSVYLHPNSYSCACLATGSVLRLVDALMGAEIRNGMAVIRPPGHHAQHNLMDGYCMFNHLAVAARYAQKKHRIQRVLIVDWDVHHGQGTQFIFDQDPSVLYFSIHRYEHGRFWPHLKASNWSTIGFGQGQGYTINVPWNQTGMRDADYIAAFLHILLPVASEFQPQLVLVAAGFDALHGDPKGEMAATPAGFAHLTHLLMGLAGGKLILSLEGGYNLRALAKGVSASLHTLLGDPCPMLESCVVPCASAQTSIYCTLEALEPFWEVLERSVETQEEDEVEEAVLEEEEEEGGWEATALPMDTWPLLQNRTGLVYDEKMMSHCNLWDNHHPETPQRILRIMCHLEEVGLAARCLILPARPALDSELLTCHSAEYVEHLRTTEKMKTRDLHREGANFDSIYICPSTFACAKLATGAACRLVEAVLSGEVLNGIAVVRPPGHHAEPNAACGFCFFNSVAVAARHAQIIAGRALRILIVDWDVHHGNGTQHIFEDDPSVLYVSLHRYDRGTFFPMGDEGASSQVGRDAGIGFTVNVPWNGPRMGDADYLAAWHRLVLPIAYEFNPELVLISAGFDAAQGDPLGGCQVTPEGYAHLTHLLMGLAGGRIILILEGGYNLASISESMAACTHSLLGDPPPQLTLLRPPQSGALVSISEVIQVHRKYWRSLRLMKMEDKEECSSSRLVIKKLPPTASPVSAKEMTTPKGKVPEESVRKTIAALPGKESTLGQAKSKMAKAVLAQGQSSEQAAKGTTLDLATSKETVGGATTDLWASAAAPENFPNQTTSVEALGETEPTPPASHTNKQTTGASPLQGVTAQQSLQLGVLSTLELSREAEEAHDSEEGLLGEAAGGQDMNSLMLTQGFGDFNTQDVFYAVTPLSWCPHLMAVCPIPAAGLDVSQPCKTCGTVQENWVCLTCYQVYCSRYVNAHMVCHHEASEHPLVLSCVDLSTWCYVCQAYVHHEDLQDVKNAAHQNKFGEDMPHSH

[17] = Toxicity in C57BL/6 mouse assessed as cell necrosis at 25 to 50 mg/kg, ip by H and E staining based analysis; format: organism-based; settings: in vivo, dose 25-50 mg/kg
[18] = Toxicity in C57BL/6 mouse assessed as appearance of inflammatory cell infiltration at 25 to 50 mg/kg, ip by H and E staining based analysis; format: organism-based; settings: in vivo, dose 25-50 mg/kg
[19] = test system: H9c2; assay: Cardioprotective activity in H2O2 induced myocardial injury in rat H9c2 cells assessed as appearance of defined nuclear boundaries at 2 to 8 uM; format: functional, cell-based; settings: dose 2-8 µM
[20] = test system: H9c2; assay: Cardioprotective activity in H2O2 induced myocardial injury in rat H9c2 cells assessed as downregulation of IL-18 mRNA level at upto 8 uM by q-PCR analysis; format: functional, cell-based
[21] = test system: H9c2; assay: Cardioprotective activity in H2O2 induced myocardial injury in rat H9c2 cells assessed as downregulation of IL-1 beta expression; format: functional, cell-based; settings: dose <= 8.0 µM
[22] = test system: Mus musculus; assay: Cardioprotective activity against myocardial ischemia/reperfusion induced C57BL/6J mouse model assessed as reduction in myocardial infarction area at 2.5 mg/kg (reference value: 72.19%); format: functional; parameters: scale not given: the % may be the effect or the level left
[23] = test system: Mus musculus; assay: Cardioprotective activity against myocardial ischemia/reperfusion induced C57BL/6J mouse model assessed as alleviation of extensive myocardial necrosis at 10 mg/kg by H and E staining based analysis; format: functional, organism-based
[24] = test system: H9c2; assay: Cardioprotective activity against H2O2 induced myocardial damage in rat H9c2 cells harbouring Ad.HDAC6 assessed as reversal of IL-1 beta expression at 8 uM; format: functional, cell-based
[25] = test system: H9c2; assay: Cardioprotective activity against H2O2 induced myocardial damage in rat H9c2 cells harbouring Ad.HDAC6 assessed as reversal of IL-18 expression at 8 uM; format: functional, cell-based

O=C(NO)c1ccc(CNC(=O)c2cc(-c3ccc(F)cc3)cn3ccnc23)cc1
IC50 [1]: 950 nM
IC50 [2]: 2740 nM
IC50 [3]: 2800 nM
IC50 [4]: 8.34 µM
IC50 [5]: > 10 µM
AUC(0-inf) [6]: 868 ng·h/mL
AUC(0-t) at 8 h [7]: 54.2 ng·h/mL
Vz [8]: 492216.71 mL/kg
Activity [9]: Dose-Dependent Effect
viability at 0.5 µM [10]: 70.5%
viability at 2 µM [11]: 70.1%
Activity [12]: 15%
Activity [13]: Dose-Dependent Effect
Activity [14]: Dose-Dependent Effect
Activity [15]: Active
inhibition [16]: Active
Activity [17]: Non-Toxic
Activity [18]: Non-Toxic
Activity [19]: Active
Activity [20]: Active
Activity [21]: Dose-Dependent Effect
Activity [22]: 59.66%
Activity [23]: Active
Activity [24]: Active
Activity [25]: Active
